IC50 data for 24 compounds are collected here from patent US5482967A, “Condensed heterocyclic compounds, their production and use” (Takeda Chemical Industries, Ltd., priority 1992, dated 1996).

Counter-ions that a name gives are not always drawn.

The target in the experiment is substance P receptor (Homo sapiens, UniProt P25103). The experiment is described as follows: Radioligand receptor binding inhibitory assay using receptor from human lymphoblast cells (IM-9), 125I-BHSP. The settings on record: IM-9 receptor, 25° C., 30 minutes. As to the method: The method of A. Margaret et al. [Molecular Pharmacology 42, 458 (1992)] was modified and used. The receptor was prepared from human lymphoblast cells (IM-9). IM-9 cells were grown in 175 cm^2 tissue culture flasks (100 ml×10) at a density approximately 2×10^5 /ml of RPMI 1640 with L-glutamine, 10% (V/V) heat inactivated fetal calf serum, penicillin (100 u/ml), and streptomycin (100 μg/ml) at 37° C. in 5% CO2 /95% air for 3 days. IM-9 cells were obtained by centrifugation at 500×g for 5 minutes at 5° C. The pellet obtained was washed once with phosphate buffer (Flow Laboratories, CAT No. 28-103-05), homogenized using Polytron homogenizer (Kinematika, Germany) in 30 ml of 50 mM Tris-HCl buffer containing 120 mM NaCl, 5 mM KCl, 2 μg/ml phenylmethyl sulfonyl fluoride, and 1 mM ethylenediamine tetra-acetic acid and then centrifuged at 40,000×g for 20 minutes. The residue was washed twice with 30 ml of buffer described above, and preserved frozen (-80° C.).
Chain of substance P receptor (P25103 whole entry): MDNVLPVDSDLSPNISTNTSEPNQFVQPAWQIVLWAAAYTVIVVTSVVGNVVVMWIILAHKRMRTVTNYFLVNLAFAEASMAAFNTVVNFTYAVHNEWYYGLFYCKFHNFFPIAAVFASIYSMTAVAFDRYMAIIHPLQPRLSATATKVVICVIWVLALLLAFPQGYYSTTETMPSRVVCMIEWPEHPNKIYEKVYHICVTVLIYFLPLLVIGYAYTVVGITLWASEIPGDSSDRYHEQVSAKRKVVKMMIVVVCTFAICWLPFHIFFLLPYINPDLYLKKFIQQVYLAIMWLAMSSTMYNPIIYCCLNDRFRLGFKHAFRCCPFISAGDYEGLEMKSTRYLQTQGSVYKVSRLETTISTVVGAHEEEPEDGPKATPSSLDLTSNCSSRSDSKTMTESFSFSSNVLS
The above specimen was suspended in a reaction buffer (50 mM Tris-HCl buffer (pH 7.4), 0.02% bovine serum albumin, 1 mM phenylmethylsulfonyl fluoride, 2 μg/ml chymostatin, 40 μg/ml bacitracin, 3 mM manganese chloride) at a protein concentration of 1.5 mg/ml and a 100 μl portion of the suspension was used in the reaction. After addition of the sample and 125I-BHSP (0.46 KBq), the reaction was conducted in 0.2 ml of reaction buffer at 25° C. for 30 minutes. The amount of nonspecific binding was determined by adding substance P at a final concentration of 2×10^-6 M. After the reaction, using a cell harvester (290PHD, Cambridge Technology, Inc., England), rapid filtration was carried out through a glass filter (GF/B, Whatman, U.S.A.) to stop the reaction. After washing three times with 250 μl of 50 mM Tris-HCl buffer (pH 7.4) containing 0.02% bovine serum albumin, the radioactivity remaining on the filter was measured with a gamma counter. Before use, the filter was immersed in 0.1% polyethyleneimine for 24 hours and air-dried.
The IC50 is the concentration at which inhibition is half-maximal. A lower IC50 goes with higher potency. `Cc1ccccc1-c1c(COCc2cc(C(F)(F)F)cc(C(F)(F)F)c2)n(C)c(=O)c2ccccc12` [Example 212, 3,5-Bis(trifluoromethyl)benzyl 1,2-dihydro-2-methyl-4-(2-methylphenyl)-1-oxo-3-isoquinoline methyl ether] yielded an IC50 of 30 nM.
In turn, `Cc1cc2c(-c3ccccc3)c(C(=O)NCc3ccccc3Cl)n(C)c(=O)c2cc1C` [Example 131, N-(2-Chlorobenzyl)-1,2-dihydro-2,6,7-trimethyl-1-oxo-4-phenyl-3-isoquinolinecarboxamide] displayed an IC50 of 86 nM.
As to `CN(Cc1cc(C(F)(F)F)cc(C(F)(F)F)c1)C(=O)c1c(-c2ccccc2)c2ccccc2c(=O)n1CC[N+](C)(C)C` [Example 282, N-[3,5-Bis(trifluoromethyl)benzyl]-1,2-dihydro-N-methyl-1-oxo-4-phenyl-2-[2-(N,N,N-trimethylammonium)ethyl]-3-isoquinolinecarboxamide], the IC50 came out at 22 nM.
As to `COc1ccccc1CN(C)C(=O)c1c(-c2ccccc2)c2cc(C)c(C)cc2c(=O)n1C` [Example 111, 1,2-Dihydro-N-(2-methoxybenzyl)-N,2,6,7-tetramethyl-1-oxo-4-phenyl-3-isoquinolinecarboxamide], the IC50 worked out at 98 nM.
The compound `Cn1c(C(=O)NCc2cc(C(F)(F)F)cc(C(F)(F)F)c2)c(-c2ccccc2)c2ccccc2c1=O` [Example 156, N-[3,5-Bis(trifluoromethyl)benzyl]-1,2-dihydro-2-methyl-1-oxo-4-phenyl-3-isoquinolinecarboxamide] had an IC50 of 6.1 nM.
In turn, `COc1nc(C(=O)N(C)Cc2cc(C(F)(F)F)cc(C(F)(F)F)c2)c(-c2ccccc2)c2ccccc12` [Example 277, N-[3,5-Bis(trifluoromethyl)benzyl]-1-methoxy-N-methyl-4-phenyl-3-isoquinolinecarboxamide] yielded an IC50 of 54 nM.
In turn, `CN(Cc1cc(C(F)(F)F)cc(C(F)(F)F)c1)C(=O)c1oc(=O)c2ccc(Cl)cc2c1-c1ccccc1` [Example 242, N-[3,5-Bis(trifluoromethyl)benzyl]-6-chloro-N-methyl-1-oxo-4-phenyl-1H-2-benzopyran-3-carboxamide] showed an IC50 of 8.6 nM.
As for `CN(Cc1cc(C(F)(F)F)cc(C(F)(F)F)c1)C(=O)c1ncc2ccccc2c1-c1ccc(F)cc1` [Example 274, N-[3,5-Bis(trifluoromethyl)benzyl]-4-(4-fluorophenyl)-N-methyl-3-isoquinolinecarboxamide], the figure is 2.3 nM; as for `CN(Cc1cc(C(F)(F)F)cc(C(F)(F)F)c1)C(=O)c1c(-c2ccc(F)cc2)c2c(F)cccc2c(=O)n1C` [Example 188, N-[3,5-Bis(trifluoromethyl)benzyl]-5-fluoro-4-(4-fluorophenyl)-N,2-dimethyl-1-oxo-3-isoquinolinecarboxamide], 1.2 nM; as for `CN(Cc1cc(C(F)(F)F)cc(C(F)(F)F)c1)C(=O)c1c(Cl)nc2ccccc2c1-c1ccccc1` [Example 269, N-[3,5-Bis(trifluoromethyl)benzyl]-2-chloro-N-methyl-4-phenyl-3-quinolinecarboxamide], 1.4 nM.
The figure for `Cn1c(=O)c(C(=O)NCc2cc(C(F)(F)F)cc(C(F)(F)F)c2)c(-c2ccccc2Cl)c2ccccc21` [Example 261, N-[3,5-Bis(trifluoromethyl)benzyl]-4-(2-chlorophenyl)-1,2-dihydro-1-methyl-2-oxo-3-quinolinecarboxamide] is 63 nM; for `CN(Cc1cc(C(F)(F)F)cc(C(F)(F)F)c1)C(=O)c1c(-c2ccccc2)c2ccccc2[nH]c1=O` [Example 258, N-[3,5-Bis(trifluoromethyl)benzyl]-1,2-dihydro-N-methyl-2-oxo-4-phenyl-3-quinolinecarboxamide] it is 3.1 nM.
On to `Cc1cc(C)cc(CNCc2c(-c3ccccc3)c3cc(C)c(C)cc3c(=O)n2C)c1` [Example 191, N-(3,5-Dimethylbenzyl)-1,2-dihydro-2,6,7-trimethyl-1-oxo-4-phenyl-3-isoquinolinemethylamine], for which the IC50 was found to be 28 nM.
As for `CN(Cc1cc(C(F)(F)F)cc(C(F)(F)F)c1)C(=O)c1c(-c2ccccc2C(F)(F)F)c2ccccc2c(=O)n1C` [Example 182, N-[3,5-Bis(trifluoromethyl)benzyl]-1,2-dihydro-N,2-dimethyl-1-oxo-4-(2-trifluoromethylphenyl)-3-isoquinolinecarboxamide], the figure is 2 nM.
As for `Cc1cc(C)cc(CNC2CCCn3c2c(-c2ccccc2)c2cc(C)c(C)cc2c3=O)c1` (stereo not drawn) [Example 233, 1-(3,5-Dimethylbenzylamino)-1,2,3,4-tetrahydro-8,9-dimethyl-6-oxo-11-phenyl-6H-benzo[b]quinolizine hydrochloride], the IC50 is 44 nM.
Turning to `Cc1nc2ccccc2c(-c2ccccc2)c1C(=O)N(C)Cc1cc(C(F)(F)F)cc(C(F)(F)F)c1` [Example 267, N-[3,5-Bis(trifluoromethyl)benzyl]-N,2-dimethyl-4-phenyl-3-quinolinecarboxamide], the IC50 was 0.68 nM.
Consider `CN(Cc1cc(C(F)(F)F)cc(C(F)(F)F)c1)C(=O)c1c(-c2ccccc2)c2cc(Cl)ccc2c(=O)n1C` [Example 174, N-[3,5-Bis(trifluoromethyl)benzyl]-6-chloro-1,2-dihydro-N,2-dimethyl-1-oxo-4-phenyl-3-isoquinolinecarboxamide], for which the 50% inhibitory concentration (IC50) was 3.4 nM.
As for `COc1cc(CNCc2c(-c3ccccc3)c3ccccc3c(=O)n2C)cc(OC)c1OC` [Example 205, 1,2-Dihydro-2-methyl-1-oxo-4-phenyl-N-(3,4,5-trimethoxybenzyl)-3-isoquinolinemethylamine], the figure is 22 nM.
Compound `Cc1cc(C)cc(CN(C)C(=O)c2c(-c3ccccc3C)c3ccccc3c(=O)n2C)c1` [Example 106, 1,2-Dihydro-N-(3,5-dimethylbenzyl)-N,2-dimethyl-4-(2-methylphenyl)-1-oxo-3-isoquinolinecarboxamide] came in with an IC50 of 30 nM.
Compound `Cc1ccc2c(=O)oc(C(=O)N(C)Cc3cc(C(F)(F)F)cc(C(F)(F)F)c3)c(-c3ccccc3)c2c1` [Example 247] showed an IC50 of 5.2 nM.
For the compound `Cn1c(C(=O)NCc2ccc(C(F)(F)F)cc2)c(-c2ccccc2)c2ccccc2c1=O` [Example 171, 1,2-Dihydro-2-methyl-1-oxo-4-phenyl-N-[4-(trifluoromethyl)benzyl]-3-isoquinolinecarboxamide], the IC50 is 20 nM.
For `COc1cccc(CNC(=O)c2c(-c3ccccc3)c3cc(C)c(C)cc3c(=O)n2C)c1` [Example 128, 1,2-Dihydro-N-(3-methoxybenzyl)-2,6,7-trimethyl-1-oxo-4-phenyl-3-isoquinolinecarboxamide], the IC50 amounted to 88 nM.
`Cc1ccccc1-c1c(C(=O)N(C)Cc2ccccc2)n(C)c(=O)c2ccccc12` [Example 103, N-Benzyl-1,2-dihydro-N,2-dimethyl-4-(2-methylphenyl)-1-oxo-3-isoquinolinecarboxamide]: the IC50 worked out at 34 nM.
`COc1ccccc1CNC(=O)c1c(-c2ccccc2)c2cc(C)c(C)cc2c(=O)n1C` [Example 110, 1,2-Dihydro-N-(2-methoxybenzyl)-2,6,7-trimethyl-1-oxo-4-phenyl-3-isoquinolinecarboxamide] displayed an IC50 of 90 nM.
